According to patent US20160008490A1, “METAL CHELATE COMPOUNDS FOR BINDING TO THE PLATELET SPECIFIC GLYCOPROTEIN IIB/IIIA” (BAYER PHARMA AKTIENGESELLSCHAFT, priority 2013, published 2016):
pIC50: −log10 of the molar value.

Key:
[1] = Relaxivity measurements at 1.41 T in water and plasma; format: physicochemical; details: relaxivity normalized to Gd, 37° C.
Method: Relaxivity measurements at 1.41 T were performed using a MiniSpec mq60 spectrometer (Bruker Analytik, Karlsruhe) operating at a resonance frequency of 60 MHz and a temperature of 37° C. The T1 relaxation times were determined using the standard inversion recovery method. The T2 measurements were done by using the Carr-Purcell-Meiboom-Gill (CPMG) pulse sequence. All measurements were done at concentrations between 0.05 mM and 1 mM of Gd in water and plasma.
The relaxivities ri (where i=1, 2) were calculated on the basis of the measured relaxation rates Ri in water and plasma:
where Ri(0) represent the relaxation rate of the respective solvent and CGd the concentration of the compound normalized to the Gadolium.

[2] = target: T1, human GP IIb/IIIa receptor (Homo sapiens, UniProt P05106+P08514); assay: GPIIb/IIIa affinity assay (displacement of tritiated reference compound from immobilized receptor); format: binding; details: purified human GPIIb/IIIa, 60 nM 3H-labeled reference compound, 1 hour at room temperature
T1 construct: human GPIIb/IIIa purified from human platelets was immobilized on a 96-well solid plate; purchased Enzyme Research Laboratories Inc. (South Bend, Ind.); host or cells: human platelets (natural source, detergent-solubilised)
T1 sequence (P08514 32-887 limits assumed): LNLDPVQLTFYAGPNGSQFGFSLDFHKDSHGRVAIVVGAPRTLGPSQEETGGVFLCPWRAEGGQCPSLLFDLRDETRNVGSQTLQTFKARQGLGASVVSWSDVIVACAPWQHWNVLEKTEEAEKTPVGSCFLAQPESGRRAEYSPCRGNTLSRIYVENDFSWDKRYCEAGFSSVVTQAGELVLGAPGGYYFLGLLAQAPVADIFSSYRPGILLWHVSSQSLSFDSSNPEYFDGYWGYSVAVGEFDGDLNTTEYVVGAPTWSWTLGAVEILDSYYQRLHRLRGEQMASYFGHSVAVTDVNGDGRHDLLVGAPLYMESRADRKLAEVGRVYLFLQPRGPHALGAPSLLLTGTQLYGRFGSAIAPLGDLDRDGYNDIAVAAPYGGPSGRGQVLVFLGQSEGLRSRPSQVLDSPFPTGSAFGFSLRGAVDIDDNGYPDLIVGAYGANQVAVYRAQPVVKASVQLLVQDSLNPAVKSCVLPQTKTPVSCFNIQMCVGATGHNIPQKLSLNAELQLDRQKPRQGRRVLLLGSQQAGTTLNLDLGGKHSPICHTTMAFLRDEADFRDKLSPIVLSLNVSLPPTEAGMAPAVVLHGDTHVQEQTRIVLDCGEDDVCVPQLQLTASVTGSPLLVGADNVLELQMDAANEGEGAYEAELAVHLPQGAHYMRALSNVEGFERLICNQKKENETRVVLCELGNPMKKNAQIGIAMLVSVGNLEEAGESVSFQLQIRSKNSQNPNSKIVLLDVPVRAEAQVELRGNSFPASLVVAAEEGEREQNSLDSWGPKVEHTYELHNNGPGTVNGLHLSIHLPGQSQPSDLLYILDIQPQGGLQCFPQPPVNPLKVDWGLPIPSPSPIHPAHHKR
T1 sequence (P08514 891-1039 partner limits assumed): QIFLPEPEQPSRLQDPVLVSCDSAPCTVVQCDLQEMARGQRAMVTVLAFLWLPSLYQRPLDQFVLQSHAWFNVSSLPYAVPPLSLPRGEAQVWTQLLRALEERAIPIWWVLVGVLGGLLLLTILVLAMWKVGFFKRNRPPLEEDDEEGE
T1 sequence (P05106 27-788): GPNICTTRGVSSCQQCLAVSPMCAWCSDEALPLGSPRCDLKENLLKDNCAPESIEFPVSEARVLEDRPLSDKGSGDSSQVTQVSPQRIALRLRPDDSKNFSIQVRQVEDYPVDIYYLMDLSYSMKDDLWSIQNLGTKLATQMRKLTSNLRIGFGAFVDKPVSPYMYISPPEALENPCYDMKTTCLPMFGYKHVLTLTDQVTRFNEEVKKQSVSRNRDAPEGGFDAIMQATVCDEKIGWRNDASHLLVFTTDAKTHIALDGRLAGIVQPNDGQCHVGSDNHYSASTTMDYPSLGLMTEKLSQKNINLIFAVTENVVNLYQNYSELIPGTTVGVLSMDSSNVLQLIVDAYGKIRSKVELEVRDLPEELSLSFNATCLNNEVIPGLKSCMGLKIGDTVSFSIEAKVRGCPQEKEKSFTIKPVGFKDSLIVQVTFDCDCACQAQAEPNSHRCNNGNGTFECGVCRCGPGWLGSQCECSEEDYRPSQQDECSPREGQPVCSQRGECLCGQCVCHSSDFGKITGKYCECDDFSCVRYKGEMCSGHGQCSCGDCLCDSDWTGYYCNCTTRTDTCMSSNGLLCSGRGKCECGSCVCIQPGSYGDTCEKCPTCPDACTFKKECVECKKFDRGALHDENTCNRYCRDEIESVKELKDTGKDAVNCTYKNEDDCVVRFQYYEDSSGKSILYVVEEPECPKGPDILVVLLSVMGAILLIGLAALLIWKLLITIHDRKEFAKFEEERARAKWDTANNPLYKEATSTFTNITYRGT
Method: Affinity assay: In the first step human GPIIb/IIIa purified from human platelets was immobilized on a 96-well solid plate. After 48 hours the plates were washed and the unspecific binding sites were blocked with Roti®-Block. 2. In the next step, the plates were simultaneously incubated with a tritium labeled known GPIIb/IIIa binder (^3H) mixed with increasing concentrations of the novel compounds (inhibitor). The higher the affinity of the inhibitor, the lower the bound fraction of the tritiated known GPIIb/IIIa binder (^3H) was. The fraction of tritiated compound (^3H), which is not displaced by inhibitor, was measured in a microplate scintillation counter.
Purified human glycoprotein IIb/IIIa (20 mM Tris-HCl, 0.1 M NaCl, 0.1% Triton X-100, 1 mM CaCl2, 0.05% NaN3, 50% Glycerol, pH 7.4) was purchased from Enzyme Research Laboratories Inc. (South Bend, Ind.). The GPIIb/IIIa receptor was diluted in phosphate-buffered saline (Dulbecco's Phosphate Buffered Saline (D-PBS (+)) with calcium and magnesium, GIBCO®, Invitrogen) with 0.01% bovine serum albumin (albumin from bovine serum—lyophilized powder, 96%, Sigma).
The GPIIb/IIIa receptor was immobilized 48 hours at least (100 μL per well, 48 to maximum 96 hours) on a 96-well solid plate (Immuno Plate MaxiSorp™, Nunc, Roskilde, Denmark) at 277 K to 280 K and at a concentration of 0.1 μg per well to 1 μg per well. As negative control one row of the plate (n=8) was incubated just with 2% bovine serum albumin (200 μL per well, albumin from bovine serum—lyophilized powder, ≧96%, Sigma, diluted in D-PBS (+)).
After washing three times with the wash buffer (230 μL per well, Dulbecco's Phosphate Buffered Saline (D-PBS (−)) contains no calcium or magnesium, GIBCO®, Invitrogen) residual exposed plastic and unspecific binding sites were blocked by incubating the plate with a special blocking solution (200 μL per well, Roti®-Block, Car Roth GmbH Co KG, Karlsruhe) containing 2% bovine serum albumin (Albumin from bovine serum—lyophilized powder, ≧96%, Sigma) 1 hour at room temperature.
After washing three times with the wash buffer 50 μL of tritiated reference compound (60 nM, ^3H-labeled compound) and 50 μL of novel compound (inhibitor) were simultaneously added to each well and incubated for 1 hour at room temperature. Several concentrations of each novel inhibitor (0.1, 1, 2, 5, 10, 20 50, 100, 200, 500, 1000, 2000, 5000, 10000 and 20000 nM) were investigated. At each concentration of inhibitor a fourfold determination was performed.
The maximum value of tritiated reference compound was determined without addition of inhibitor (n=8). To exclude unspecific binding of ^3H— reference compound wells without glycoprotein receptors were used as negative controls (n=12, identically treated just without GPIIb/IIIa receptors).
After one hour the plate was washed three times with phosphate-buffered saline (200 μL per well, Dulbecco's Phosphate Buffered Saline (D-PBS (+)), GIBCO®, Invitrogen). Following 140 μL of liquid scintillation cocktail (MicroScint™ 40 aqueous, Perkin Elmer) was added to each well. After 15 min at room temperature the plates were measured at the microplate scintillation counter (TopCount NXT v2.13, Perkin Elmer, Packard Instrument Company).
In the first step human glycoprotein IIb/IIIa, which is purified from human platelets, was immobilized on a 96-well solid plate. After 48 hours at least the plates were washed and the unspecific binding sites were blocked with Roti®-Block. In the next step, the plates were simultaneously incubated with a tritium labeled reference compound and the novel small molecule compound (inhibitor). The higher the affinity of the inhibitor, the smaller is the bound fraction of reference compound. The fraction of tritiated reference compound, which is not displaced by inhibitor, was measured at a microplate scintillation counter. The higher the affinity of the inhibitor, the smaller is the bound fraction of tritium-labeled reference compound. […]

[3] = system: human activated platelets; assay: Binding of investigated compounds to human activated platelets (ICP-MS of Gd in pellet and supernatant); format: cell-based; details: incubation concentration 1 μM molecule; for Concentration within platelet pellet: ADP-activated platelet-rich plasma, 20 minutes, pellet washed
Method: For each experiment fresh blood was taken from a volunteer using 10 mL citrate-tubes (Sarstedt S-Monovette 02.1067.001, 10 mL, Citrate 3.13%). The 10 mL citrate-tubes were carefully inverted 10 times to mix blood and anticoagulant. The tubes were stored in an incubator at a temperature of 37° C. until centrifugation (Heraeus miniTherm CTT with integrated rotation- and turning device, turning speed: 19 rotations per minute, Heraeus Instruments GmbH, Hanau/Germany).
For plasma preparation tube centrifugation was carried out for 15 minutes at 1811 g at room temperature (Eppendorf, Centrifuge 5810R). Blood was centrifuged 15 minutes at 201 g at room temperature to produce platelet-rich plasma. The tubes were stored for 30 min at room temperature to get a better separation. The separated platelet-rich plasma was finally centrifuged for further 3 min at 453 g to remove the remaining erythrocytes. The platelet-rich plasma was activated using a final concentration of 5 μM Adenosindiphosphate (ADP, Sigma). The activated platelet-rich plasma was incubated 20 minutes with different concentrations of gadolinium-labeled compound and subsequently was centrifuged 3 minutes at 1360 g. 20 μL of incubation solution was taken to determine the concentration (n=3). […] The gadolinium concentration of supernatant and pellet was determined using an inductively coupled plasma mass spectrometry (ICP-MS Agilent 7500a).
The results for incubation concentration of 1 μM gadolinium-labeled compound are summarized in table 3 (in comparison to Gadovist® standard dose: 100 μmol Gd/kg body weight).

Compound	r1 plasma [1] [L/mmol/s]	r1 water [1] [L/mmol/s]	pIC50 [2]	Concentration within platelet pellet [3] [μM Gd]	pellet/supernatant ([3]; ratio of Gd concentration)
CC(C(=O)NCC(=O)NCCCCc1cc(C#Cc2cncc([C@H](CC(=O)O)NC(=O)[C@@H]3CCCN(C(=O)CCC4CCNCC4)C3)c2)cc(CCCCNC(=O)CNC(=O)C(C)N2CCN(CC(=O)O)CCN(CC(=O)O)CCN(CC(=O)O)CC2)c1)N1CCN(CC(=O)O)CCN(CC(=O)O)CCN(CC(=O)O)CC1 (stereo partly drawn) [Example 6, Digadolinium 2,2′,2″,2′″,2″″,2′″″-({5-[(5-{(1S)-2-carboxy-1-[({(3R)-1-[3-(piperidin-4-yl)-propanoyl]piperidin-3-yl}carbonyl)amino]ethyl}pyridin-3-yl)ethynyl]-1,3-phenylene}-bis[butane-4,1-diylimino(2-oxoethane-2,1-diyl)imino(1-oxopropane-1,2-diyl)-1,4,7,10-tetraazacyclododecane-10,1,4,7-tetrayl])hexaacetate]	10.3	8.5	6.99	6.8 ± 0.7	
CC(C(=O)NCC(=O)NC[C@H](NC(=O)CNC(=O)C(C)N1CCN(CC(=O)O)CCN(CC(=O)O)CCN(CC(=O)O)CC1)C(=O)NCCCc1ccc(C#Cc2cncc([C@H](CC(=O)O)NC(=O)[C@@H]3CCCN(C(=O)CCC4CCNCC4)C3)c2)cc1)N1CCN(CC(=O)O)CCN(CC(=O)O)CCN(CC(=O)O)CC1 (stereo partly drawn) [Example 10, Digadolinium N-{2-[4,7,10-tris(carboxylatomethyl)-1,4,7,10-tetraazacyclododecan-1-yl]-propanoyl}glycyl-N-(3-{4-[(5-{(1S)-2-carboxy-1-[({(3R)-1-[3-(piperidin-4-yl)propanoyl]-piperidin-3-yl}carbonyl)amino]ethyl}pyridin-3-yl)ethynyl]phenyl}propyl)-3-[(N-{2-[4,7,10-tris(carboxylatomethyl)-1,4,7,10-tetraazacyclododecan-1-yl]propanoyl}glycyl)-amino]alaninamide]			7.80	13.9 ± 0.3	
CC(C(=O)NCC(=O)NCC(NC(=O)CNC(=O)C(C)N1CCN(CC(=O)O)CCN(CC(=O)O)CCN(CC(=O)O)CC1)C(=O)NCC(NC(=O)C(CNC(=O)CNC(=O)C(C)N1CCN(CC(=O)O)CCN(CC(=O)O)CCN(CC(=O)O)CC1)NC(=O)CNC(=O)C(C)N1CCN(CC(=O)O)CCN(CC(=O)O)CCN(CC(=O)O)CC1)C(=O)NCCCc1ccc(C#Cc2cncc([C@H](CC(=O)O)NC(=O)[C@@H]3CCCN(C(=O)CCC4CCNCC4)C3)c2)cc1)N1CCN(CC(=O)O)CCN(CC(=O)O)CCN(CC(=O)O)CC1 (stereo partly drawn) [Example 11, Tetragadolinium 2,3-bis({2,3-bis[(N-{2-[4,7,10-tris(carboxylatomethyl)-1,4,7,10-tetraaza-cyclododecan-1-yl]propanoyl}glycyl)amino]propanoyl}amino)-N-(3-{4-[(5-{(1S)-2-carboxy-1-[({(3R)-1-[3-(piperidin-4-yl)propanoyl]piperidin-3-yl}carbonyl)amino]ethyl}-pyridin-3-yl)ethynyl]phenyl}propyl)propanamide]			7.59	19.9 ± 0.9	
Gadolinium 2,2′,2″-{10-[(2S)-1-({2-[(6-(3-[(5-{(1S)-2-carboxy-1-[({(3R)-1-[3-(piperidin-4- yl)propanoyl]piperidin-3-yl}carbonyl)amino]ethyl}pyridin-3-yl)ethynyl]phenyl}butyl)-amino]-2-oxoethyl)amino)-1-oxopropan-2-yl]-1,4,7,10-tetraazacyclododecane-1,4,7-triyl}triacetate [Example 5]	9.9	8.0	7.60	3.9 ± 0.4	123 ± 16 (n = 3)
